Data set [1] in a line: The drug is tested on Z-030 corresponding to mouse gut metagenome with ENA study accession number: PRJEB37062 and ENA sample accession number: ERS12561829 for biotransformation under anaerobic condition. The drug concentrations were measured over 9 timepoints collected between 0 and 24 hours of incubation by liquid-chromatography-coupled mass spectrometry (LC–MS). To be noted: 2 µM.

Data set [2] is described as follows: The drug is tested on Z-027 corresponding to metagenome with ENA study accession number: PRJEB37062 and ENA sample accession number: ERS12561826 for biotransformation under anaerobic condition. The drug concentrations were measured over 9 timepoints collected between 0 and 24 hours of incubation by liquid-chromatography-coupled mass spectrometry (LC–MS). To be noted: 2 µM.

Data set [3] in a line: The drug is tested on Z-020 corresponding to rabbit gut metagenome with ENA study accession number: PRJEB37062 and ENA sample accession number: ERS12561819 for biotransformation under anaerobic condition. The drug concentrations were measured over 9 timepoints collected between 0 and 24 hours of incubation by liquid-chromatography-coupled mass spectrometry (LC–MS). As to conditions: 2 µM.

Data set [4] is described as follows: The drug is tested on Z-019 corresponding to rat gut metagenome with ENA study accession number: PRJEB37062 and ENA sample accession number: ERS12561818 for biotransformation under anaerobic condition. The drug concentrations were measured over 9 timepoints collected between 0 and 24 hours of incubation by liquid-chromatography-coupled mass spectrometry (LC–MS). As to conditions: 2 µM.

Data set [5] in a line: The drug is tested on Z-007 corresponding to rat gut metagenome with ENA study accession number: PRJEB37062 and ENA sample accession number: ERS12561807 for biotransformation under anaerobic condition. The drug concentrations were measured over 9 timepoints collected between 0 and 24 hours of incubation by liquid-chromatography-coupled mass spectrometry (LC–MS). To be noted: 2 µM.

A short description of data set [6]: The drug is tested on Z-005 corresponding to metagenome with ENA study accession number: PRJEB37062 and ENA sample accession number: ERS12561805 for biotransformation under anaerobic condition. The drug concentrations were measured over 9 timepoints collected between 0 and 24 hours of incubation by liquid-chromatography-coupled mass spectrometry (LC–MS). As to conditions: 2 µM.

Data set [7] is described as follows: The drug is tested on Z-002 corresponding to rabbit gut metagenome with ENA study accession number: PRJEB37062 and ENA sample accession number: ERS12561802 for biotransformation under anaerobic condition. The drug concentrations were measured over 9 timepoints collected between 0 and 24 hours of incubation by liquid-chromatography-coupled mass spectrometry (LC–MS). As to conditions: 2 µM.

Data set [8] is described as follows: The drug is tested on Z-001 corresponding to mouse gut metagenome with ENA study accession number: PRJEB37062 and ENA sample accession number: ERS12561801 for biotransformation under anaerobic condition. The drug concentrations were measured over 9 timepoints collected between 0 and 24 hours of incubation by liquid-chromatography-coupled mass spectrometry (LC–MS). To be noted: 2 µM.

The nature of data set [9]: The drug is tested on WLS-098 corresponding to human gut metagenome with ENA study accession number: PRJEB37062 and ENA sample accession number: ERS12561754 for biotransformation under anaerobic condition. The drug concentrations were measured over 9 timepoints collected between 0 and 24 hours of incubation by liquid-chromatography-coupled mass spectrometry (LC–MS). To be noted: 2 µM.

Data set [10] in a line: The drug is tested on WLS-073 corresponding to human gut metagenome with ENA study accession number: PRJEB37062 and ENA sample accession number: ERS12561749 for biotransformation under anaerobic condition. The drug concentrations were measured over 9 timepoints collected between 0 and 24 hours of incubation by liquid-chromatography-coupled mass spectrometry (LC–MS). To be noted: 2 µM.

Data set [11] can be described thus: The drug is tested on WLS-069 corresponding to human gut metagenome with ENA study accession number: PRJEB37062 and ENA sample accession number: ERS12561748 for biotransformation under anaerobic condition. The drug concentrations were measured over 9 timepoints collected between 0 and 24 hours of incubation by liquid-chromatography-coupled mass spectrometry (LC–MS). As to conditions: 2 µM.

Data set [12] is described as follows: The drug is tested on WLS-007 corresponding to human gut metagenome with ENA study accession number: PRJEB37062 and ENA sample accession number: ERS12561742 for biotransformation under anaerobic condition. The drug concentrations were measured over 9 timepoints collected between 0 and 24 hours of incubation by liquid-chromatography-coupled mass spectrometry (LC–MS). To be noted: 2 µM.

For data set [13] the following is noted: human gut metagenome, 24 h, 2 µM.
For data set [14] the following is noted: human gut metagenome, 24 h, 2 µM. This is another data set of the same source.
The conditions of data set [15]: human gut metagenome, 24 h, 2 µM. The source holds these as a separate data set.
For data set [16] the following is noted: human gut metagenome, 24 h, 2 µM. This is another data set of the same source.
The conditions of data set [17]: human gut metagenome, 24 h, 2 µM. The source holds these as a separate data set.
The conditions of data set [18]: human gut metagenome, 24 h, 2 µM. This is another data set of the same source.
For data set [19] the following is noted: human gut metagenome, 24 h, 2 µM. The source holds these as a separate data set.
The conditions of data set [20]: human gut metagenome, 24 h, 2 µM. This is another data set of the same source.
Also: call rule not given here.

For `CCN(CC)CC#CCOC(=O)C(O)(c1ccccc1)C1CCCCC1.Cl` (stereo not given) [OXYBUTYNIN CHLORIDE], the “Bacterial Biotransformation” value in data set [1] is reported as “Compound NOT metabolized”; in data set [2], “Compound NOT metabolized”; in data set [3] it was “Compound metabolized”; in data set [4] it was “Compound NOT metabolized”; in data set [5], “Compound NOT metabolized”; in data set [6], “Compound metabolized”. Moreover, the “Bacterial Biotransformation” value was “Compound metabolized” in data set [7]; “Compound metabolized” in data set [8]; “Compound metabolized” in [9]; “Compound NOT metabolized” in data set [10]; “Compound metabolized” in [11]; “Compound metabolized” in data set [12]. In addition, the “Bacterial Biotransformation” value in data set [13], in data set [14], in [15], in [16], in [17] and in [18] was “Compound metabolized” in each case. In addition, the “Bacterial Biotransformation” value is on record as “Compound NOT metabolized” in data set [19] and “Compound metabolized” in data set [20].

`Fc1ccc([C@@H]2CCNC[C@H]2COc2ccc3c(c2)OCO3)cc1` [PAROXETINE]: the “Bacterial Biotransformation” value is recorded as “Compound NOT metabolized” in [1]; “Compound NOT metabolized” in data set [2]; “Compound NOT metabolized” in [3]; “Compound NOT metabolized” in [4]; “Compound NOT metabolized” in data set [5]; “Compound metabolized” in data set [6]. Further, the “Bacterial Biotransformation” value is given as “Compound NOT metabolized” in [7]; “Compound NOT metabolized” in data set [8]; “Compound metabolized” in [9]; “Compound NOT metabolized” in data set [10]; “Compound metabolized” in data set [11]; “Compound NOT metabolized” in data set [12]. The “Bacterial Biotransformation” value in data set [13] is “Compound NOT metabolized”; in data set [14] it was “Compound NOT metabolized”; in [15], “Compound metabolized”; in data set [16], “Compound metabolized”; in [17], “Compound metabolized”; in [18], “Compound metabolized”. Moreover, the figures for the “Bacterial Biotransformation” value in data set [19] and in data set [20] were “Compound NOT metabolized” and “Compound metabolized”, respectively.

For the compound `O=c1[nH]c2ccccc2n1C1CCN(CCCC(c2ccc(F)cc2)c2ccc(F)cc2)CC1` [PIMOZIDE], the “Bacterial Biotransformation” value in [1] is recorded as “Compound NOT metabolized”; in data set [2], “Compound NOT metabolized”; in data set [3] it was “Compound metabolized”; in data set [4] it was “Compound NOT metabolized”; in data set [5], “Compound metabolized”; in [6], “Compound metabolized”. The “Bacterial Biotransformation” value was “Compound NOT metabolized” in data set [7]; “Compound metabolized” in data set [8]; “Compound metabolized” in data set [9]; “Compound metabolized” in [10]; “Compound metabolized” in [11]; “Compound metabolized” in data set [12]. Moreover, the “Bacterial Biotransformation” value in data set [13] is “Compound metabolized”; in data set [14], “Compound metabolized”; in data set [15], “Compound metabolized”; in [16], “Compound metabolized”; in data set [17] it was “Compound NOT metabolized”; in data set [18], “Compound metabolized”. The “Bacterial Biotransformation” value in data set [19] is “Compound NOT metabolized”; in [20], “Compound metabolized”.

Consider `CS(=O)(=O)O.OC(CCN1CCCCC1)(c1ccccc1)c1ccccc1` [PRIDINOL METHANESULFONATE], for which the “Bacterial Biotransformation” value in data set [1], in [2], in data set [3], in data set [4], in data set [5] and in [6] was “Compound NOT metabolized” each time. The “Bacterial Biotransformation” value is on record as “Compound metabolized” in data set [7]; “Compound NOT metabolized” in data set [8]; “Compound metabolized” in data set [9]; “Compound NOT metabolized” in data set [10]; “Compound NOT metabolized” in data set [11]; “Compound NOT metabolized” in [12]. The “Bacterial Biotransformation” value in [13] was “Compound NOT metabolized”; in [14], “Compound NOT metabolized”; in [15], “Compound metabolized”; in data set [16], “Compound NOT metabolized”; in data set [17], “Compound NOT metabolized”; in [18] it was “Compound metabolized”. Moreover, the “Bacterial Biotransformation” value in data set [19] is listed as “Compound NOT metabolized”; in data set [20] it was “Compound metabolized”.

Regarding `CC(CN1c2ccccc2Sc2ccccc21)N(C)C` (stereo not given) [PROMETHAZINE], the “Bacterial Biotransformation” value in data set [1], in [2], in data set [3], in [4], in [5] and in [6] was “Compound NOT metabolized” in each case. In addition, the “Bacterial Biotransformation” value is recorded as “Compound NOT metabolized” in data set [7]; “Compound NOT metabolized” in [8]; “Compound metabolized” in data set [9]; “Compound NOT metabolized” in data set [10]; “Compound metabolized” in [11]; “Compound NOT metabolized” in data set [12]. Also, the “Bacterial Biotransformation” value in data set [13] is recorded as “Compound metabolized”; in data set [14] it was “Compound NOT metabolized”; in data set [15], “Compound metabolized”; in [16], “Compound NOT metabolized”; in data set [17] it was “Compound NOT metabolized”; in data set [18], “Compound metabolized”. The “Bacterial Biotransformation” value in data set [19] is “Compound NOT metabolized”; in [20] it was “Compound metabolized”.

The values above are taken from ChEMBL document CHEMBL5724914, “Linking interpersonal differences in gut microbiota composition and drug biotransformation activity” (2024).
